Laboratory results reported in PubChem BioAssay (NCI).
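The compound was tested at five concentrations on cells cultured in 96-well plates, with a 48-hour exposure period. GI50 marks 50% less growth. TGI marks complete inhibition of growth.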

What was measured:
Assay in all cases: NCI-60 cell line screen, 48 h
M14 melanoma = system: M14 melanoma
HL-60(TB) leukemia = system: HL-60(TB) leukemia
LOX IMVI melanoma = system: LOX IMVI melanoma
U251 CNS = system: U251 CNS
BT-549 breast = system: BT-549 breast
SK-MEL-2 melanoma = system: SK-MEL-2 melanoma
SN12C renal = system: SN12C renal
SK-OV-3 ovarian = system: SK-OV-3 ovarian
NCI/ADR-RES ovarian = system: NCI/ADR-RES ovarian
NCI-H522 lung = system: NCI-H522 lung

| SMILES | TGI (M14 melanoma) [µM] | TGI (HL-60(TB) leukemia) [µM] | TGI (LOX IMVI melanoma) [µM] | TGI (U251 CNS) [µM] | TGI (BT-549 breast) [µM] | TGI (SK-MEL-2 melanoma) [µM] | TGI (SN12C renal) [µM] | TGI (SK-OV-3 ovarian) [µM] | TGI (NCI/ADR-RES ovarian) [µM] | TGI (NCI-H522 lung) [µM] | GI50 (HL-60(TB) leukemia) [µM] | GI50 (NCI-H522 lung) [µM] | GI50 (M14 melanoma) [µM] | GI50 (LOX IMVI melanoma) [µM] | GI50 (U251 CNS) [µM] | GI50 (BT-549 breast) [µM] | GI50 (SK-MEL-2 melanoma) [µM] | GI50 (SN12C renal) [µM] | GI50 (SK-OV-3 ovarian) [µM] |
| --- | --- | --- | --- | --- | --- | --- | --- | --- | --- | --- | --- | --- | --- | --- | --- | --- | --- | --- | --- |
| CN(C)c1ccc(/C=C2\N=C(c3ccccc3)N(c3nc4c(Cl)cc(Cl)cc4s3)C2=O)cc1 | > 100 | > 100 | > 100 | > 100 | > 100 | > 100 | > 100 | > 100 | > 100 |  |  |  |  |  |  |  |  |  |  |
| CN(C)CCCOC(=O)C(O)(Cc1ccccc1)C1CC1 (centres undefined) | > 100 | > 100 | > 100 | > 100 |  | > 100 | > 100 | > 100 | > 100 | > 100 |  |  |  |  |  |  |  |  |  |
| O=C1/C(=C/c2cccs2)N=C(c2ccccc2)N1C1Nc2cc3c(cc2S1)NC(N1C(=O)/C(=C/c2cccs2)N=C1c1ccccc1)S3 (centres undefined) | 37.1 | 39.6 | 33.7 | 32.7 | 35.1 | 36.9 |  |  | 33.6 | 31.4 |  |  |  |  |  |  |  |  |  |
| Cc1nc2c(Br)cc(Br)cc2c(=O)n1-c1ccccc1N | > 100 | 66.5 | > 100 |  | 87.6 | 58.1 | > 100 | > 100 | > 100 |  |  |  |  |  |  |  |  |  |  |
| N#CC(c1ccccc1)c1cccc2ccccc12 (centres undefined) | 96.4 | 57.7 | 50.8 | > 100 |  | 56.2 | > 100 |  | > 100 | 53.9 |  |  |  |  |  |  |  |  |  |
| CN(C)Cc1cc(N=Nc2ccc(Cl)c(Cl)c2)ccc1O | 31.9 | 9.44 | 17.9 | 23.6 | 27 |  | 27.8 |  | 23.5 | 16.2 |  |  |  |  |  |  |  |  |  |
| Cc1ccc2[nH]c(=O)c(-c3cnc(=O)[nH]n3)c(O)c2c1 | > 100 | > 100 | > 100 | > 100 | > 100 | > 100 | > 100 | > 100 | > 100 |  |  |  |  |  |  |  |  |  |  |
| CCCCCCCCCC[C@@H](O)[C@@H]1CC[C@@H]([C@@H]2CC[C@@H]([C@@H](O)CCCCCCCCCCC(O)CC3=CC(C)OC3=O)O2)O1 (some centres undefined) | > 10 | 1.85 | > 10 |  |  |  | > 10 | > 10 | > 10 | > 10 |  |  |  |  |  |  |  |  |  |
| Nc1nc(N)c2ncn(CC(CO)CC(c3ccccc3)P(=O)(O)O)c2n1 (centres undefined) | 10.4 | > 100 | > 100 | > 100 |  | > 100 | > 100 | > 100 |  | > 100 |  |  |  |  |  |  |  |  |  |
| CC(Nc1cc(Cl)cc(Cl)c1)c1ccncc1 (centres undefined) | 33.4 |  | 24.8 | 35.2 | 52.7 |  |  |  | 63.7 | 32.6 |  |  |  |  |  |  |  |  |  |
| CN(C)Cc1cc(C(=O)/C=C/c2ccc(/C=C/C(=O)c3cc(CN(C)C)c(O)c(CN(C)C)c3)cc2)cc(CN(C)C)c1O | 46.8 | 98 | 26.5 | 47 | 60.2 | > 100 | 76 |  | > 100 | 40.1 |  |  |  |  |  |  |  |  |  |
| CC(=O)C(=C(I)I)c1ccccc1 | 31.6 | 48.2 | 49.1 | 35.7 |  | 53.6 | 28.4 | > 100 | 49 | 31 |  |  |  |  |  |  |  |  |  |
| O=C(c1cccs1)N(C(=O)N1CCC(c2ccccc2)CC1)c1ccccc1 | > 100 | 91.2 | > 100 | > 100 | > 100 | > 100 | > 100 | > 100 | > 100 |  |  |  |  |  |  |  |  |  |  |
| CC(=O)O[C@H]1/C(=C/c2ccc(N(C)C)cc2)C[C@H]2[C@@H]3CC=C4C[C@@H](N5CCCC5)CC[C@]4(C)[C@H]3CC[C@]12C | > 100 | > 100 | > 100 | > 100 | > 100 | > 100 | > 100 | > 100 | > 100 |  |  |  |  |  |  |  |  |  |  |
| O=c1[nH]cnc2c1ncn2[C@H]1CO[C@@H](CO)[C@@H]1O |  |  | > 100 | > 100 | > 100 | > 100 | > 100 | > 100 | > 100 | > 100 |  |  |  |  |  |  |  |  |  |
| NCCCCCCNc1cc(-c2cccc(OC(F)(F)F)c2)nc2ccc(N3CCCC3)cc12 |  | 4 |  |  |  |  |  |  |  | 3.1 | 2.01 | 1.66 |  |  |  |  |  |  |  |
| Brc1ccc2c(c1)C1=C(CO2)Cc2ccccc2O1 | 35 |  | 31.1 | 36.3 | 33 | 34.3 | 33 | 46.7 | 58.3 | 39.8 |  |  |  |  |  |  |  |  |  |
| COc1ccc2nc3c([N+](=O)[O-])ccc4c3c(c2c1)NCCN4C | 2.8 | > 100 | 4.71 | 13.4 | 11.4 |  | 9.29 | 9.23 | 7.73 | 3.31 |  |  |  |  |  |  |  |  |  |
| CC1(C)CCOC(=O)C(Cl)CC1Cl (centres undefined) | > 100 |  | > 100 | > 100 |  | > 100 | > 100 | > 100 | > 100 | > 100 |  |  |  |  |  |  |  |  |  |
| Cc1nnc2c3c(-c4ccccc4)c(-c4ccccc4)oc3nc(N(C)C)n12 | > 100 | 46.9 | > 100 | > 100 |  |  |  | > 100 | > 100 | > 100 |  |  |  |  |  |  |  |  |  |
| O=[N+]([O-])C(=C(NCc1ccccc1)NCc1ccccc1)C(Cl)=C(Cl)Cl | 75.8 | 45.9 | 37.8 |  | > 100 |  | > 100 | > 100 | > 100 | 79.1 |  |  |  |  |  |  |  |  |  |
| COc1ccc(-c2cn3ccnc3c(-c3ccc4ncn(C5CCCCC5)c4c3)n2)cc1 | > 100 | 5.05 | > 100 | > 100 | 3.91 | > 100 | > 100 | 7.64 |  | 6.15 | 1.06 | 0.424 | 0.612 | 0.74 | 2.22 | 0.41 | 0.944 | 2.11 | 0.508 |
| O=C1CSC2(CCN(CCCN3c4ccccc4Sc4ccc(Cl)cc43)CC2)N1 | 20.6 |  | 16.6 | 20.6 | 26.1 | 31 | 22.7 | 21.5 | 20.2 | 23.6 |  |  |  |  |  |  |  |  |  |
| C=C1CCCCCCCCCCC1S(=O)c1ccccc1 (centres undefined) | 92.2 | 39.2 | 91.3 | 53.2 |  | > 100 | 55.4 | 96.4 | > 100 |  |  |  |  |  |  |  |  |  |  |
